{"source": "patent EP0986381B1", "about": "“USE OF DITERPENES LIKE HYPOESTOXIDES FOR THE MANUFACTURE OF A MEDICAMENT FOR IMMUNOSUPPRESSION, ANTICANCER AND ANTIVIRAL TREATMENT” (Immune Modulation, Inc., priority 1997, dated 1998)", "key": {"[1]": {"tested_on": "mouse malignant melanoma cells (B16-F1)", "experiment": "Colorimetric MTT cytotoxicity assay, B16-F1", "type": "cell-based", "settings": "B16-F1, 72 hours, read-out: IC50 concentration (cytotoxicity)", "experimental": "The following materials and methods were employed in the non-limiting Examples set out below. Tumor cells: Human cervical epitheloid carcinoma (HeLa), human renal clear cell carcinoma (CAKI-1), human malignant melanoma (RPMI-7951) and mouse malignant melanoma (B16-F1) were procured from ATCC (Rockville, MD) and maintained in vitro with MEM medium (Mediatech, Inc., Herndon, VA) supplemented with 10% heat-inactivated fetal bovine serum (American Qualex, San Clemente, CA), 10mM glutamine, 100 U/ml penicillin, and 100 µg/ml streptomycin (Sigma Chemicals, Saint Louis, MO) (complete medium). […] Cell viability was assessed by trypan blue dye exclusion test and the cell number was adjusted to required concentration. Colorimetric MTT assay: Cytotoxic effects of the hypoestoxide compounds of formulas I and II (JO-4A) were determined in vitro by a colorimetric assay (Mosmann, T., J. Immunol. Methods, 65: 55-63, 1983). […] Mixing with a multichannel pipetter dissolved the dark blue crystals and the absorbance was measured at 545-650 nm using an ELISA plate reader. […] The tumors were measured with a microcaliper, and the tumor volume was calculated by the formula: Length x width x height x 0.5236 (Jungwirth, A. et al., Proc. Natl. Acad. Sci. USA, 94:5810-5813, 1997). […]"}, "[2]": {"tested_on": "cultured normal human PBMCs", "experiment": "Toxicity on PHA-activated normal human PBMCs, trypan blue dye exclusion", "type": "cell-based", "settings": "0.0001 µM - 0.5 µM, 7 days", "experimental": "PBMCs from two individuals were co-cultured in the presence of varying concentrations of JO-4 for 5 days. […] Cytotoxic T lymphocytes (CTLs) were generated from one-way MLR in the absence or presence of JO-4 for 5-7 days. At the end of culture, CTLs were harvested and tested in a four hour ^51Cr-release assay against activated lymphocytes which were used as stimulators in the one-way MLR. […] Human PBMCs were cultured with 5 µg/ml LPS in the absence or presence of 1.0 µg/ml JO-4 in 24-well microtiter plates for 24 hours. At the end of culture, supernatants were harvested and tested by EIA for the presence of IL-1β, TNF-α, and IL-6. […] PBMCs from two individuals were co-cultured in the absence or presence of varying concentrations of JO-4A for 5 days. […] Antiviral effects of JO-4 on HSV-2 were determined as described in Figure 16A. • Figure 17A and 17B show the results of toxicity testing of JO-4 and JO-4A on normal, uninfected African green monkey kidney cells (CV-1), respectively. […] Cytotoxicity was determined by colorimetric (MTT) assay.\nPeripheral Blood Mononuclear cells (PBMCs): Heparinized venous blood was obtained from healthy adult volunteers and PBMCs were separated by centrifugation over Ficoll-Hypaque (Pharmacia Biotech, Piscataway, NJ). […] Cell viability was assessed by trypan blue dye exclusion test and the cell number was adjusted to required concentration."}}}
{"smiles": "C=C1C(=O)CC2CC3OC3(C)CCC3OC3(C)CC(O)C1C2(C)C", "note": "(centres unmarked) [JO-4A]", "values": [{"measurement": "IC50", "setting": "[1]", "result": "6.25 to 12.5", "unit": "µM"}, {"measurement": "toxic effect on cultured human PBMC", "setting": "[2]", "result": "no toxic effect"}]}
